# From patent publication US20230364057A1, “BACTERIAL DNA GYRASE INHIBITORS AND METHODS OF USE THEREOF” (THE FLORIDA INTERNATIONAL UNIVERSITY BOARD OF TRUSTEES, priority 2022, published 2023)
# Values joined by “and” are separate entries in the source; they are usually repeats but may differ in a detail not shown here. Equal entries are not always repeated. “Also recorded” adds a separate entry of the source. Where two headings read alike, the source gives them in different places.
# Columns and labels:
# [1] = biological target: E. coli DNA topoisomerase I (Escherichia coli (strain K12), UniProt P06612); assay: E. coli DNA topoisomerase I inhibition; format: biochemical; conditions: gallates at 100 µM
# [2] = biological target: human DNA topoisomerase I (Homo sapiens (Human), UniProt P11387); assay: Human DNA topoisomerase I inhibition; format: biochemical; conditions: gallates at 100 µM
# E. coli DNA gyrase [3] = biological target: T1, E. coli DNA gyrase (Escherichia coli (strain K12), UniProt P0AES4+P0AES6); assay: biochemical; format: biochemical
# Mtb DNA gyrase = Mtb DNA gyrase (Mycobacterium tuberculosis (strain ATCC 25618 / H37Rv), UniProt P9WG45+P9WG47); assay: Mtb DNA gyrase inhibition assay (gel-based); format: biochemical
# Protocol: The IC50 against E. coli (A) and Mtb (C) gyrase were determined using the gel-based gyrase inhibition assays. The gyrase mediated DNA cleavage assays (B and D) were performed using pBR322. (A) 229 inhibits E. coli gyrase. Lane 1, rx pAB1. […] Lane 1, rx pAB1. […] 100 µM of CPDs were used. Symbols rx, nk, In, and sc represent relaxed, nicked, linear, and supercoiled DNA, respectively.
# Agarose gel-based DNA gyrase inhibition assays were performed in 30 µL of 1 ×gyrase buffer (35 mM Tris-HCl, 24 mM KCl, 4 mM MgCl2, 2 mM DTT, 1.75 mM ATP, 0.1 mg/mL BSA, 6.5% glycerol, pH7.5) containing 400 ng of rx pAB1 at 37° C. 100 ng of DNA gyrase was used to supercoil the rx pAB1 in the presence of different concentrations of a gyrase inhibitor. After 15 minutes of incubation with the inhibitor at 37° C., all reactions were stopped with 1 µL of stop solution (3% SDS and 250 mM EDTA). Samples were analyzed by electrophoresis in 1% w/v agarose gels followed by ethidium bromide staining and photographed under UV light.
# [4] = biological target: T2, E. coli DNA topoisomerase IV (Escherichia coli (strain K12), UniProt P0AFI2+P20083); assay: E. coli DNA topoisomerase IV relaxation assay (gel-based); format: biochemical
# Protocol: (§1) Relaxation assays by E. coli DNA topoisomerase IV and the ATPase assays were performed. […] Lane 1 is supercoiled plasmid pAB1. […] The supercoiled, fluorescently-labeled plasmid pAB1_FL905 was used.
# E. coli DNA gyrase [5] = biological target: T1, E. coli DNA gyrase; assay: E. coli DNA gyrase ATPase assay; format: biochemical; conditions: AB-MECA and gallates at 100 µM
# Protocol: E. coli DNA gyrase ATPase assays were performed in 60 µL of 1 ×gyrase ATPase buffer (10 mM Tris.HCl (pH 7.5), 0.2 mM EDTA, 1 mM magnesium chloride, 1 mM DTT, and 2% (w/v) glycerol) containing 50 nM E. coli DNA gyrase, 200 ng rx pAB1, 0.8 mM Phosphoenol pyruvate, 1.2 units of Pyruvate kinase, 1.7 units of lactate dehydrogenase, and 0.4 mM of NADH at 37° C. After the reaction mixtures are incubated on ice for 5 minutes, 2 mM of ATP is added to initiate the reaction. Absorbance at OD340nm is monitored for up to 30 minutes at 37° C. in a spectrophotometer.
# [6] = biological target: human DNA topoisomerase IIα (Homo sapiens (Human), UniProt P11388); assay: Agarose gel-based inhibition assay against human DNA topoisomerase IIα; format: biochemical; conditions: for inhibition of human DNA topoisomerase IIα: gallates at 100 µM
# Mtb = Mtb whole cell assay (% inhibition, MIC); format: cell-based, Mycobacterium tuberculosis
# E. coli DNA gyrase [7] = biological target: T1, E. coli DNA gyrase; assay: Agarose gel-based DNA gyrase inhibition assay; format: biochemical
# Protocol: 100 ng of DNA gyrase was used to supercoil the rx pAB1 in the presence of different concentrations of a gyrase inhibitor. […] Samples were analyzed by electrophoresis in 1% w/v agarose gels followed by ethidium bromide staining and photographed under UV light.
# J774 = conditions: 200 µM
# in vitro [8] = conditions: human
# S. aureus (ATCC 14775) = assay: Minimum inhibitory concentration, broth microdilution; conditions: Staphylococcus aureus
# in vitro [9] = conditions: mouse
# MRSA = assay: Minimum inhibitory concentration, broth microdilution; conditions: Staphylococcus aureus
# M. abscessus = assay: MIC against M. abscessus; format: cell-based, Mycobacterium abscessus; conditions: Mycobacteroides abscessus
# E. coli (ATCC 25922) = assay: Minimum inhibitory concentration, broth microdilution; conditions: Escherichia coli
# [10] = test system: NCI panel of 60 cancer cell lines; conditions: up to 1 mM; results of NCI DTP; cited from earlier work
# E. coli imp = assay: microbe, parasite or virus in culture; conditions: Escherichia coli, read-out: MIC E. coli imp BAS3023
# Protocol: (§2) Antibacterial minimum inhibitory concentrations (MICs) were obtained from three independent experiments using broth microdilution methods in 96-well plates according to Clinical and Laboratory Standards Institute guidelines. Cells were culture from singles colonies in MHIIB medium for 24 h at 37° C. in agitation (200 RPM). The cultures were then diluted using the same media to reach an OD600 of 0.1. Then, 50 µL of the diluted cultures were added to the plates holding 50 µL of serially diluted compounds in MHIIB. The plates were incubated at 37° C. for 20 h. The starting inoculum was fixated to 10^5 colony-forming units per ml.
# E. coli DNA gyrase [11] = biological target: T1, E. coli DNA gyrase; assay: SDFQ-based DNA gyrase inhibition assay; format: biochemical; conditions: Table 8; read-out: IC50 Gyrase SDFQ
# Protocol: 100 ng of DNA gyrase was used to supercoil the rx pAB1_FL905 in the presence of different concentrations of a gyrase inhibitor. […] The IC50 values were estimated by nonlinear fitting of the following equation: […]
# where F is the fluorescence intensity at the x concentration of an min inhibitor. Fmax and Fmin are the maximum and minimum fluorescence of the DNA sample, respectively. P is a slope parameter.
# B. subtilis (ATCC 6633) = assay: Minimum inhibitory concentration, broth microdilution; conditions: Bacillus subtilis, ATCC6633, read-out: MIC B. subtilis ATCC 6633
# Protocol: as §2
# [12] = biological target: T2, E. coli DNA topoisomerase IV; assay: SDFQ-based DNA relaxation assay with E. coli DNA topoisomerase IV; format: biochemical
# Protocol: as §1
# E. coli DNA gyrase [13] = biological target: T1, E. coli DNA gyrase; assay: SDFQ HTS primary assay (1536-well, pAB1_FL905); format: biochemical; conditions: for inhibition at 5 µM: read-out: inhibition activities against E. coli DNA gyrase
# Protocol: SDFQ HTS primary assay using pAB1_FL905 was performed in 2 µL of (1 xDNA gyrase buffer: 20 mM Tris-Acetate pH 7.9, 50 mM KAc, 10 mM MgCl2, 2 mM DTT, 1 mM ATP, 0.1 mg/mL BSA). […] 3) Spun plate at 800 rpm for 30 seconds.
# E. coli DNA gyrase [14] = biological target: T1, E. coli DNA gyrase; assay: DNA gyrase mediated DNA cleavage assay; format: biochemical; conditions: pBR322
# Protocol: 250 ng of supercoiled pBR322 plasmid were incubated with 50 nM of E. coli DNA gyrase in reactions containing 35 mM Tris-HCl, 24 mM KCl, 4 mM MgCl2, 2 mM DTT, 0.1 mg/mL BSA, 6.5% glycerol, and 1.75 mM ATP, in presence of 200 µM of compounds, at 37° C. for 15 min. Then, 0.2% (w/v) of SDS and 0.1 mg/mL proteinase K were added, and samples were incubated at 37° C. for 1 h. […] Samples were examined by electrophoresis in 1% w/v agarose gel containing 0.5 µg/mL ethidium bromide and photographed under UV light.
# E. coli DNA gyrase [15] = biological target: T1, E. coli DNA gyrase; conditions: known inhibitors of the LOPAC library; read-out: inhibition IC50 against E. coli DNA gyrase; cited from earlier work
# [16] = ATCC14775, read-out: MIC (µM) Sa
# [17] = Table 10, read-out: IC50 (µM) Mtb gyrase
# [18] = read-out: IC50 against E. coli DNA gyrase
# T2 sequence (P0AFI2 whole entry, looked up): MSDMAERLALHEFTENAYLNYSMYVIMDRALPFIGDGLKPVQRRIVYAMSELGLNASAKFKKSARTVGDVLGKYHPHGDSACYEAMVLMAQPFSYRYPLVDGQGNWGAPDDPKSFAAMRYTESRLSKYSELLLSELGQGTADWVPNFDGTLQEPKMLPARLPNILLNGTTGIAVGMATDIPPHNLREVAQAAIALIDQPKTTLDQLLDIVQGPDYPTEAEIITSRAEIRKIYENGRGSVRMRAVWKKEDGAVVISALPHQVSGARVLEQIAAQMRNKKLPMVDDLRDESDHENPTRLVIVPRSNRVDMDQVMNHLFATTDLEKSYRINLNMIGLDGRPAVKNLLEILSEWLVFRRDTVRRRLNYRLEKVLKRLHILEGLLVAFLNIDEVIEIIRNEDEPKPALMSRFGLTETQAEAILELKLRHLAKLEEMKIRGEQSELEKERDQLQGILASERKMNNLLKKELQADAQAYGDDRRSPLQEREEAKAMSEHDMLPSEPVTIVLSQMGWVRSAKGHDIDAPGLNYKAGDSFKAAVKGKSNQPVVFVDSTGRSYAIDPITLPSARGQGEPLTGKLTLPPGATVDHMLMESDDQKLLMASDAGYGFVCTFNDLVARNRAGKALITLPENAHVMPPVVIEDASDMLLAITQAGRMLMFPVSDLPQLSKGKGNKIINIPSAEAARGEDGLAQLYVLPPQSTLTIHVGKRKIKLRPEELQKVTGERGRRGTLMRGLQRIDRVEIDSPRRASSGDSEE
# T2 sequence (P20083 whole entry, looked up): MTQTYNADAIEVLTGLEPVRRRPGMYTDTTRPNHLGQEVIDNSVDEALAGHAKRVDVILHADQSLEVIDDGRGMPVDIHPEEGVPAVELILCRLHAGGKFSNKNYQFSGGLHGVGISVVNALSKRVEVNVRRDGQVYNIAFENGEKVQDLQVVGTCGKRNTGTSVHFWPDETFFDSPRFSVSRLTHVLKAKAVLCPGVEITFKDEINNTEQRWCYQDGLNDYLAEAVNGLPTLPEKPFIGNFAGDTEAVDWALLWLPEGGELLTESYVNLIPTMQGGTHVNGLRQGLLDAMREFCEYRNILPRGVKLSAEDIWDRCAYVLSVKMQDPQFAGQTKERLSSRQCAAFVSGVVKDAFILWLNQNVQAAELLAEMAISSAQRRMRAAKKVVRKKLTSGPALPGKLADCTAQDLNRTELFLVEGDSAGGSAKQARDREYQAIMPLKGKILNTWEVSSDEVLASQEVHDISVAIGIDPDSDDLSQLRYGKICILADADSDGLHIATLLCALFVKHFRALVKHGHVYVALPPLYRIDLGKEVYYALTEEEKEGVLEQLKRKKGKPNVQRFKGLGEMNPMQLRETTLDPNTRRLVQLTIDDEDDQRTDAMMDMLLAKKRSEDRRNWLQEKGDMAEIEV
# Sequence of E. coli DNA topoisomerase I (P06612 whole entry, looked up): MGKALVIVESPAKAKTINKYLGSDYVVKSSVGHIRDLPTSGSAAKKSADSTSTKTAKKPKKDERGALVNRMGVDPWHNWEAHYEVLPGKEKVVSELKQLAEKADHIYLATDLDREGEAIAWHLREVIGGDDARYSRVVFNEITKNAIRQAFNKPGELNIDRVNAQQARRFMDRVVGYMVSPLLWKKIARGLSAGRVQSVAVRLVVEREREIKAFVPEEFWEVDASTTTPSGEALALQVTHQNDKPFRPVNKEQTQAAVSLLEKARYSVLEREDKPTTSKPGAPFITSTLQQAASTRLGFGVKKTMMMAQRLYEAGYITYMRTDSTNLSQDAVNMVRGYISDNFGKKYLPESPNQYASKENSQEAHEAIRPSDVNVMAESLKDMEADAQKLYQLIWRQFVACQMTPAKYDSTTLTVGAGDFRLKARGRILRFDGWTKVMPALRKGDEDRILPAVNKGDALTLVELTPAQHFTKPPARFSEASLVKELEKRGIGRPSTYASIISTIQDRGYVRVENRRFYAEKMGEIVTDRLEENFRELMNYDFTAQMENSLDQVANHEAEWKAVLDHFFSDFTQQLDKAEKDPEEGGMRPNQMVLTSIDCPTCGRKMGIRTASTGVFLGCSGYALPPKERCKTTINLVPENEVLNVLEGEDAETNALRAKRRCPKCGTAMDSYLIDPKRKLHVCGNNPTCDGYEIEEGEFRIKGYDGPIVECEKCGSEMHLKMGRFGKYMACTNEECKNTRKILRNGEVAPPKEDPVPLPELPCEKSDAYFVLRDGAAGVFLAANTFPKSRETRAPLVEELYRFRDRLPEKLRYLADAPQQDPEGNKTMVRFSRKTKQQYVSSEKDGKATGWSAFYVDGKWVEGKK
# Sequence of human DNA topoisomerase I (P11387 whole entry): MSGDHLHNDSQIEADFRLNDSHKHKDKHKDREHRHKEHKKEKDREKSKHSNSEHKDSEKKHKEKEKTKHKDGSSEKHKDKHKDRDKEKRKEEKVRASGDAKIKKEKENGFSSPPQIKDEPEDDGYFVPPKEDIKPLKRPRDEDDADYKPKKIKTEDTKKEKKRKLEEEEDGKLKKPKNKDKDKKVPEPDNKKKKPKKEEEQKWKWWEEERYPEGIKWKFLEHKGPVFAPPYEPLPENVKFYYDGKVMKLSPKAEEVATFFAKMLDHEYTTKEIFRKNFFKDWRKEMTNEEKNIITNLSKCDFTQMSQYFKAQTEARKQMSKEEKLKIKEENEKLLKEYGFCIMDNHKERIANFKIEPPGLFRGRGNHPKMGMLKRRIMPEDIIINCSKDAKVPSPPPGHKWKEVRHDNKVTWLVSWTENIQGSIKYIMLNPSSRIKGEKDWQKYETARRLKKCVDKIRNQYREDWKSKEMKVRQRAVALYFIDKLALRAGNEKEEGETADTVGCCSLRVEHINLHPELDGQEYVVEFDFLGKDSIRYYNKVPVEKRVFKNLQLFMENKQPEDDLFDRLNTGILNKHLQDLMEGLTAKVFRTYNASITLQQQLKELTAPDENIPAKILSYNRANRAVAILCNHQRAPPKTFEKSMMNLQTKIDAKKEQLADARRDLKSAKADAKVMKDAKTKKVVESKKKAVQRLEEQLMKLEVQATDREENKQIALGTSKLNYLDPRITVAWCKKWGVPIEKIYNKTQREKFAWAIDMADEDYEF
# Sequence of human DNA topoisomerase IIα (P11388 whole entry): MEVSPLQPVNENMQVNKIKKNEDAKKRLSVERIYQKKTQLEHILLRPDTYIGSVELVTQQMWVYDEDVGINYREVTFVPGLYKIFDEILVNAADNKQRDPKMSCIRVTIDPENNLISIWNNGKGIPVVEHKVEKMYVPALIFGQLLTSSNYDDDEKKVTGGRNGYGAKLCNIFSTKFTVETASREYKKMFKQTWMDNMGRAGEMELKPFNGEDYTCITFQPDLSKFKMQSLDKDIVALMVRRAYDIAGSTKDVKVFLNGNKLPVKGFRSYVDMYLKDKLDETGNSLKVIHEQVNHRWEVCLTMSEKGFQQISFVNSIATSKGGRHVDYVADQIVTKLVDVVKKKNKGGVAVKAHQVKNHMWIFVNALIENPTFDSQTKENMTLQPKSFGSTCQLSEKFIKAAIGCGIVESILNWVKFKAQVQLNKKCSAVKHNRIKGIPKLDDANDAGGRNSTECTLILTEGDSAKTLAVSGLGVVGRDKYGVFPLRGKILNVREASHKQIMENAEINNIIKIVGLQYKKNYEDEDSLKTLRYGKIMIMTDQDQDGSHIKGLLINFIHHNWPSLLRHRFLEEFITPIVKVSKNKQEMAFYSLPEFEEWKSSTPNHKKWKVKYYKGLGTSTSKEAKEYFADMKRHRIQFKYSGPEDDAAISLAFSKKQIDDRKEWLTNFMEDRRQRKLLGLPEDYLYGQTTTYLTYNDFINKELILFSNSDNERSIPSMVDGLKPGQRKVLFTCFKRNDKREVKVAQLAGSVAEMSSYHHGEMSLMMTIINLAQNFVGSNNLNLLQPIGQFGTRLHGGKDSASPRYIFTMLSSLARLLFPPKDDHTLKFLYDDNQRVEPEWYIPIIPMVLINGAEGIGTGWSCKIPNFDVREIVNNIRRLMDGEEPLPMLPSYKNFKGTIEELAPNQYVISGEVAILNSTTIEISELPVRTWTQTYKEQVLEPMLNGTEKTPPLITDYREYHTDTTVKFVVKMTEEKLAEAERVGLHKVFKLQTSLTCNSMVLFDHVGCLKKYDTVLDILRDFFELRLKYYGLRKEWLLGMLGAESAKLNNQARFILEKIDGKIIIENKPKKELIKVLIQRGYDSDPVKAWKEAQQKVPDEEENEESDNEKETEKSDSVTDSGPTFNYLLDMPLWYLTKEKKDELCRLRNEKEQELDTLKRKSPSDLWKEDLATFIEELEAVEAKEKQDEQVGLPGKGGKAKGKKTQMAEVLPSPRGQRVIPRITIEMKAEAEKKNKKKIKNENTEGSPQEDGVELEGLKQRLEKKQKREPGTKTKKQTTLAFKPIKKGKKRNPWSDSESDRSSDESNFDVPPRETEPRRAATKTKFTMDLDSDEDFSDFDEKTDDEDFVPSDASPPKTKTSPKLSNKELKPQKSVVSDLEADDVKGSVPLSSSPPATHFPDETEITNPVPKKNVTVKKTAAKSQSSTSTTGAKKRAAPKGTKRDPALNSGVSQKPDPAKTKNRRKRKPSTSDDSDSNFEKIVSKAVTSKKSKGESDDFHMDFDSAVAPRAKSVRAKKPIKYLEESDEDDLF
smiles,measurement,setting,value
"CNC(=O)[C@H]1O[C@@H](n2cnc3c(NCc4ccc(N)cc4)ncnc32)[C@H](O)[C@@H]1O [AB-MECA, reference compound]",inhibition of E. coli DNA topoisomerase I,[1],did not inhibit
same,inhibition of human DNA topoisomerase I,[2],did not inhibit
same,inhibition of E. coli DNA gyrase activities,E. coli DNA gyrase [3],does not inhibit
same,inhibition of Mtb DNA gyrase activities,Mtb DNA gyrase,did not inhibit
same,inhibition of E. coli DNA topoisomerase IV,[4],did not inhibit
same,inhibition of the ATPase activities of E. coli DNA gyrase,E. coli DNA gyrase [5],did not inhibit
same,inhibition of human DNA topoisomerase IIα,[6],did not inhibit
Cc1c(CCC(=O)O)c(=O)oc2c(C)c3occ(-c4ccc(-c5ccccc5)cc4)c3cc12 [Compound 119],activity against Mtb,Mtb,most active
same,inhibition at 20 µM,"Mtb; Mycobacterium tuberculosis, Table 5 (same values in Table 6 at 20 µM)",70.4%
same,inhibition of E. coli DNA gyrase activities,E. coli DNA gyrase [7]; 50 µM of compounds,completely inhibited
same,cytotoxicity J774,J774,no cytotoxicity
same,IC50,in vitro [8],> 200 µM
same,MIC,"S. aureus (ATCC 14775); ATCC14775, read-out: MIC (µM) SA",0.8 µM
same,MIC,"S. aureus (ATCC 14775); ATCC14775, read-out: Minimum Inhibitory Concentration S.aureus",0.78 µM
same,IC50,"E. coli DNA gyrase [3]; IC50 (µM) EC, Table 5, E. coli gyrase",7.7 µM
same,inhibition of Mtb DNA gyrase activities,Mtb DNA gyrase,potent Mtb gyrase inhibitors
same,IC50,"Mtb DNA gyrase; Table 5, Mtb gyrase, read-out: IC50 (µM) Mtb",16 µM
same,IC50,in vitro [9],> 200 µM
same,IC50,[6],133 µM
same,MIC,"MRSA; MRSA, read-out: MIC (µM) MRSA",0.8 µM
same,MIC,"MRSA; MRSA, read-out: Minimum Inhibitory Concentration S.aureus MRSA",0.78 µM
C[n+]1c(-c2ccc(/C=C/C=N/NC(=O)c3ccc(C(=O)N/N=C/c4ccc(-c5cn6ccccc6[n+]5C)cc4)cc3)cc2)cn2ccccc21 [Compound 261],MIC,Mtb; Mycobacterium tuberculosis,109 µM
same,MIC,M. abscessus,22.9 µM
same,IC50,in vitro [8],> 200 µM
same,MIC,S. aureus (ATCC 14775); [16],> 200 µM
same,IC50,Mtb DNA gyrase; [17],9.3 µM
same,MIC,"E. coli (ATCC 25922); ATCC25922, read-out: MIC (µM) Ec, E. coli strain ATCC25922",50 µM
same,cytotoxicity against the NCI panel of 60 cancer cell lines,[10],no cytotoxicity
C[n+]1c(-c2ccc(NC(=O)c3ccc(C(=O)Nc4ccc(-c5cn6ccccc6[n+]5C)cc4)cc3)cc2)cn2ccccc21 [Compound 263],MIC,Mtb; Mycobacterium tuberculosis,11.3 µM
same,MIC,M. abscessus,> 200 µM
same,IC50,in vitro [8],> 200 µM
same,MIC,S. aureus (ATCC 14775); [16],0.39 µM
same,IC50,Mtb DNA gyrase; [17],7.7 µM
same,cytotoxicity against the NCI panel of 60 cancer cell lines,[10],no cytotoxicity
"CNC(=O)[C@H]1O[C@@H](n2cnc3c(NCc4cccc(I)c4)ncnc32)[C@H](O)[C@@H]1O [IB-MECA, reference compound]",inhibition of E. coli DNA topoisomerase I,[1],did not inhibit
same,inhibition of human DNA topoisomerase I,[2],did not inhibit
same,IC50,E. coli DNA gyrase [3]; [18],50.7 µM
same,inhibition of Mtb DNA gyrase activities,Mtb DNA gyrase,did not inhibit
same,inhibition of E. coli DNA topoisomerase IV,[4],did not inhibit
same,inhibition of the ATPase activities of E. coli DNA gyrase,E. coli DNA gyrase [5],ATP competitive inhibitors; also recorded: inhibition
same,inhibition of human DNA topoisomerase IIα,[6],did not inhibit
"O=C(Oc1ccccc1)c1cc(O)c(O)c(O)c1 [Phenyl gallate, phenyl gallate]",MIC,E. coli imp,> 200 µM
same,IC50,E. coli DNA gyrase [11],> 100 µM
same,IC50,"E. coli DNA gyrase [7]; Table 8, read-out: IC50 Gyrase Gel-based",> 100 µM
same,MIC,B. subtilis (ATCC 6633),> 64 µg/mL and > 200 µM
same,IC50,[12],> 100 µM
same,MIC,"S. aureus (ATCC 14775); ATCC14775, read-out: MIC S. aureus ATCC 14775",64 µg/mL and 200 µM
same,IC50,"[4]; IC50 Topoisomerase IV Gel-based, Table 8",> 100 µM
same,MIC,"E. coli (ATCC 25922); ATCC25922, read-out: MIC E coli ATCC 25922, Table 9",> 200 µM
same,MIC,"MRSA; ATCC33591 / MRSA, read-out: MIC MRSA ATCC 33591",200 µM
same,MIC,"MRSA; ATCCBAA44 / MRSA, read-out: MIC S. aureus (MRSA) ATCC BAA44",64 µg/mL
O=C(O)C1=CC(=C(c2ccc(O)c(C(=O)O)c2)c2ccc(O)c(C(=O)O)c2)C=CC1=O [aurintricarboxylic acid],inhibition at 5 µM,E. coli DNA gyrase [13],> 40%
"CNC(=O)[C@H]1O[C@@H](n2cnc3c(NCc4cccc(I)c4)nc(Cl)nc32)[C@H](O)[C@@H]1O [chloro-IB-MECA, reference compound]",inhibition of E. coli DNA topoisomerase I,[1],did not inhibit
same,inhibition of human DNA topoisomerase I,[2],did not inhibit
same,E. coli DNA gyrase-mediated DNA breaks and nicking,E. coli DNA gyrase [14],did not DNA double stranded DNA breaks
same,IC50,E. coli DNA gyrase [3]; IC50 against E. coli DNA gyrase,2.4 µM
same,IC50,E. coli DNA gyrase [3]; [18],< 5 µM
same,inhibition of Mtb DNA gyrase activities,Mtb DNA gyrase,did not inhibit
same,inhibition of E. coli DNA topoisomerase IV,[4],did not inhibit
same,inhibition of the ATPase activities of E. coli DNA gyrase,E. coli DNA gyrase [5],ATP competitive inhibitors; also recorded: inhibition
same,inhibition of human DNA topoisomerase IIα,[6],did not inhibit
CCn1cc(C(=O)O)c(=O)c2ccc(C)nc21 [nalidixic acid],IC50,E. coli DNA gyrase [15],> 30 µM
CC1COc2c(N3CCN(C)CC3)c(F)cc3c(=O)c(C(=O)O)cn1c23 (centres unmarked) [ofloxacin],inhibition at 5 µM,E. coli DNA gyrase [13],> 40%
CCn1cc(C(=O)O)c(=O)c2cc3c(cc21)OCO3 [oxolinic acid],IC50,E. coli DNA gyrase [15],> 30 µM
N[C@@H]1[C@H]2CN(c3nc4c(cc3F)c(=O)c(C(=O)O)cn4-c3ccc(F)cc3F)C[C@@H]12 [trovafloxacin],inhibition activities against E. coli DNA gyrase,"E. coli DNA gyrase [13]; LOPAC library, 5 µM",more than 40%
